Like-named read-outs stand apart in the source and are kept apart here.
Assays:
[1] = tested on: Serratia marcescens expressing IMP-1 (CL5741); assay: Antibiotic potentiation activity: synergistic concentration (MITC95) with imipenem, growth by OD600; format: cell-based
Method: (§1) Antibiotic Potentiation Activity: Determination of Synergistic Concentration
(§2) The bacterial strains tested included the clinical strains Escherichia coli expressing NDM-1 (CLB30005, CLB30016), Serratia marcescens expressing IMP-1 (CL5741), and Klebsiella pneumoniae expressing VIM-1 (IHMA599644). Inhibitor activity was measured in the presence and absence of imipenem or ceftazidime in a 384-well microplate.
(§3) The clinical strains CLB30016, CL5741, and IHMA599644 were grown on trypticase soy agar containing 5% sheep's blood. The clinical strain CLB30005 was grown on Mueller Hinton broth agar containing 8 μg/ml imipenem. The bacteria on agar plates were incubated overnight at 35° C. with ambient humidity (achieved from an open pan of water inside the incubator). The following day, individual colonies from each clinical strain were picked and resuspended in 5 ml saline to attain an OD600 of 0.14, 0.11, 0.15 and 0.13, for CLB30005, CLB30016, CL5741 and IHMA599644, respectively. These were further diluted 1:100 into 1.1×CAMHB and used to inoculate the test wells as described below.
(§4) Imipenem in 10 mM 3-(N-morpholino)propanesulfonic acid (MOPS, pH 7) was stored in single use aliquots at −80° C. Test inhibitors were dissolved in DMSO and diluted 1:50 in the assay, resulting in a final concentration range of 200 μM to 0.195 μM. On the day of the assay, 4 μl of antibiotic was added to 45 μl of bacteria followed by 1 μl of test compound and mixed by pipetting and with an orbital shaker. The concentration of antibiotic used in the assay was 1 μg/ml or 4 μg/ml. Microplates were covered and incubated at 35° C. for 22 hours to 24 hours. At the end of the incubation, absorbance was determined using a spectrophotometer. The synergistic concentration of MBLI was determined by identifying the lowest concentration of test compound in the presence of a given concentration of antibiotic that was required to inhibit 95% of the growth of the bacteria.
(§5) Representative compounds of the present invention display a synergistic effect. For example, representative compounds of EXAMPLES 1-456 were determined to restore susceptibility to imipenem at concentrations of 200 μM or less.

[2] = tested on: Escherichia coli expressing NDM-1 (CLB30016); assay: as above; format: cell-based
Method: as §1, §2, §3, §4, §5

[3] = tested on: Klebsiella pneumoniae expressing VIM-1 (IHMA599644); assay: as above; format: cell-based
Method: as §1, §2, §3, §4, §5

IMP-1 = IMP-1 (Serratia marcescens, UniProt P52699); assay: Enzyme activity: determination of IC50, fluorescence assay with CCF2-FA substrate; format: biochemical; conditions: CCF2-FA 1.25 μM, 2 hours at 25° C., read-out: IMP1 IC50
Chain of IMP-1 (P52699 19-246, looked up, species assumed): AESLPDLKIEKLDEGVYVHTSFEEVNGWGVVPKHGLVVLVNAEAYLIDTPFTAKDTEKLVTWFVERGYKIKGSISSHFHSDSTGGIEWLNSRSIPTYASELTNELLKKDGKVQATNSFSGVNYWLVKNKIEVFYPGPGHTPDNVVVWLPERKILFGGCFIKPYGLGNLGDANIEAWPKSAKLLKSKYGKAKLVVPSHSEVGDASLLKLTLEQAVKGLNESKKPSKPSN
Method: (§6) Enzyme Activity: Determination of IC50
(§7) The Class B enzyme activities were measured in the presence of a compound of the EXAMPLES as a test inhibitor in a fluorescence assay against a commercially available substrate consisting of a cephalosporin core linking 7-hydroxycoumarin to fluorescein (CCF2-FA; Life Technologies, Grand Island, N.Y.). The enzyme (NDM-1, IMP-1 or VIM-1) and the substrate were diluted in 100 mM KH2PO4 buffer (pH 7) containing 0.005% Tween-20 and 10 μM ZnSO4. In the assay, the final concentration of enzyme was 1 pM, 2 pM and 30 pM for NDM-1, IMP-1 and VIM-1, respectively, and the final concentration of CCF2-FA was 1.25 μM. The test inhibitor was dissolved in DMSO and diluted 1:50 in the assay, resulting in a final concentration range of 20 μM to 0.00063 μM. In a 384-well microplate, the test inhibitor was incubated with the metallo-β-lactamase enzyme and the substrate for 2 hours at 25° C. Fluorescence at 460 nm following excitation at 405 nm was measured. The IC50 value was determined from semi-logarithmic plots of enzyme inhibition versus inhibitor concentration, with a curve generated using a 4-parameter fit.

NDM-1 = NDM-1 (Klebsiella pneumoniae, UniProt C7C422); assay: as above; format: biochemical; conditions: CCF2-FA 1.25 μM, 2 hours at 25° C., read-out: NDM1 IC50
Chain of NDM-1 (C7C422 29-270, looked up, species assumed): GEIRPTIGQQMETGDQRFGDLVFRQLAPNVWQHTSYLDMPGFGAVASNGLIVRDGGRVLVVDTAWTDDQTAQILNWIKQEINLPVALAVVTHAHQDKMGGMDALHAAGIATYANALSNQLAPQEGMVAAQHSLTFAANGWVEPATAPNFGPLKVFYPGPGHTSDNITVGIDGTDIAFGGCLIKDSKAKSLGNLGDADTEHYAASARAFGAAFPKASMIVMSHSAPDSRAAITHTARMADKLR
Method: as §6, §7

VIM-1 = VIM-1 (Pseudomonas aeruginosa, UniProt A0A0F7KYQ8); assay: as above; format: biochemical; conditions: CCF2-FA 1.25 μM, 2 hours at 25° C., read-out: VIM1 IC50
Method: as §6, §7

[4] = S. marcescens CL5741 (IMP-1), 95% inhibition of growth
[5] = E. coli CLB30016 (NDM-1), 95% inhibition of growth
[6] = K. pneumoniae IHMA599644 (VIM-1), 95% inhibition of growth
[7] = 95% inhibition of bacterial growth, strain CL5741
[8] = 95% inhibition of bacterial growth, strain CLB30016
[9] = 95% inhibition of bacterial growth, strain IHMA599644

Row | SMILES | IMP1 SM5741 MITC95 [1, 4] [µM] | NDM1 EC30016 MITC95 [2, 5] [µM] | VIM1 KP599644 MITC95 [3, 6] [µM] | IC50 (IMP-1; IMP-1 enzyme 2 pM) [nM] | IC50 (NDM-1; NDM-1 enzyme 1 pM) [nM] | IC50 (VIM-1; VIM-1 enzyme 30 pM) [nM] | IMP1 SM5741 MITC95 [1, 7] [µM] | NDM1 EC30016 MITC95 [2, 8] [µM] | VIM1 KP599644 MITC95 [3, 9] [µM] | IC50 (IMP-1; enzyme 2 pM) [nM] | IC50 (NDM-1; enzyme 1 pM) [nM] | IC50 (VIM-1; enzyme 30 pM) [nM]
1 | CC(C)(C)[C@H](C(=O)O)[C@@H](Cc1cccc2sc(Br)nc12)c1nnn[nH]1 [Example 423, (2R,3R)-4-(2-bromobenzo[d]thiazol-4-yl)-2-(tert-butyl)-3-(1H-tetrazol-5-yl)butanoic acid] | 25 | 12.5 | 50 | 2.77 | 1.22 | 0.989 | – | – | – | – | – | –
2 | CCC[C@H](C(=O)O)[C@H](Cc1ccc(C2CCN(C=N)C2)cc1)c1nnn[nH]1 (stereo partly drawn) [Example 415, (2S)-2-((1S)-2-(4-(1-(iminomethyl)pyrrolidin-3-yl)phenyl)-1-(1H-tetrazol-5-yl)ethyl)pentanoic acid] | 12.5 | 9.375 | 18.75 | 390 | 121 | 4.32 | – | – | – | – | – | –
3 | CCC[C@H](C(=O)O)[C@H](Cc1cnc(S(C)(=O)=O)nc1)c1nnn[nH]1 [Example 286, (S)-2-((S)-2-(2-(methylsulfonyl)pyrimidin-5-yl)-1-(1H-tetrazol-5-yl)ethyl)pentanoic acid] | >200 | 25 | 18.8 | > 20000 | 4600 | 37 | – | – | – | – | – | –
4 | CC(C)C[C@H](C(=O)O)[C@H](Cc1ccc(CCN2CCCCC2=O)c(F)c1)c1nn[nH]n1 [Example 438, (S)-2-((S)-2-(3-fluoro-4-(2-(2-oxopiperidin-1-yl)ethyl)phenyl)-1-(2H-tetrazol-5-yl)ethyl)-4-methylpentanoic acid] | 1.172 | 25 | 75 | 4.84 | 13.4 | 1.57 | – | – | – | – | – | –
5 | O=C(O)[C@@H](C1CCCC1)[C@H](Cc1ccc(C2CCNC2)cc1)c1nnn[nH]1 (stereo partly drawn) [Example 79, 3-(4-((2S,3S)-3-carboxy-3-cyclopentyl-2-(1H-tetrazol-5-yl)propyl)phenyl)pyrrolidin-1-ium] | – | – | – | – | – | – | 4.7 | 3.1 | 6.2 | 190 | 24 | 2.3
6 | CC(C)C[C@H](C(=O)O)[C@H](Cc1ccc2ncc(N)cc2c1)c1nnn[nH]1 [Example 119, (S)-2-((S)-2-(3-aminoquinolin-6-yl)-1-(1H-tetrazol-5-yl)ethyl)-4-methylpentanoic acid] | – | – | – | – | – | – | 3.1 | 9.4 | 25 | 52 | 12 | 1
7 | CCC[C@H](C(=O)O)[C@H](Cc1ccc(NCCS(N)(=O)=O)cn1)c1nnn[nH]1 [Example 149, 2-((2S,3S)-3-carboxy-2-(1H-tetrazol-5-yl)hexyl)-5-((2-sulfamoylethyl)amino)pyridin-1-ium] | – | – | – | – | – | – | 38 | 0.39 | 18.8 | 1600 | 170 | 98
8 | CC(C)C[C@H](C(=O)O)[C@H](Cc1ccc(N2CC(C(C)(C)O)C2)nc1)c1nnn[nH]1 [Example 331, (2S)-2-[(1S)-2-{6-[3-(1-hydroxy-1-methylethyl)azetidin-1-yl]pyridin-3-yl}-1-(1H-tetrazol-5-yl)ethyl]-4-methylpentanoic acid] | 18.8 | 9.4 | 100 | 340 | 130 | 49 | – | – | – | – | – | –
9 | CCC[C@H](C(=O)O)[C@H](Cc1ccc(NCCO)nc1)c1nnn[nH]1 [Example 129, (S)-2-((S)-2-(6-((2-hydroxyethyl)amino)pyridin-3-yl)-1-(1H-tetrazol-5-yl)ethyl)pentanoic acid] | – | – | – | – | – | – | 9.4 | 0.39 | 9.4 | 830 | 77 | 5.6
10 | CCC[C@H](C(=O)O)[C@H](Cc1ccc(O)nc1)c1nnn[nH]1 [Example 157, (S)-2-((S)-2-(6-hydroxypyridin-3-yl)-1-(1H-tetrazol-5-yl)ethyl)pentanoic acid] | – | – | – | – | – | – | >200 | 18.8 | 25 | 12000 | 730 | 8.5
11 | CCC[C@H](C(=O)O)[C@H](Cc1ccc(NCCn2ccnn2)cc1)c1nn[nH]n1 [Example 221, (2S)-2-[(1S)-1-(2H-tetrazol-5-yl)-2-(4-{[2-(1H-1,2,3-triazol-1-yl)ethyl]amino}phenyl)ethyl]pentanoic acid] | – | – | – | – | – | – | 16 | 31 | 100 | 220 | 84 | 27
12 | CCC[C@H](C(=O)O)[C@H](Cc1ccc2ccc(N)nc2c1)c1nnn[nH]1 [Example 147, (S)-2-((S)-2-(2-aminoquinolin-7-yl)-1-(1H-tetrazol-5-yl)ethyl)pentanoic acid] | – | – | – | – | – | – | 100 | 3.1 | 6.2 | 4500 | 110 | 0.85
13 | CCC[C@H](C(=O)O)[C@H](Cc1cnn2ncccc12)c1nnn[nH]1 [Example 156, (S)-2-((S)-2-(pyrazolo[1,5-b]pyridazin-3-yl)-1-(1H-tetrazol-5-yl)ethyl)pentanoic acid] | – | – | – | – | – | – | >200 | 31 | 25 | 5400 | 150 | 1.5
14 | CCC[C@H](C(=O)O)[C@H](Cc1ccccc1-c1cccnc1)c1nn[nH]n1 [Example 396, (2S)-2-[(1S)-2-(2-pyridin-3-ylphenyl)-1-(2H-tetrazol-5-yl)ethyl]pentanoic acid] | 75 | 9.4 | 50 | 2800 | 9.2 | 18 | – | – | – | – | – | –
15 | CC(C)C[C@H](C(=O)O)[C@H](Cc1ccc(Oc2ccc(CC(C)(C)N)cc2)nc1)c1nn[nH]n1 [Example 386, (2S)-2-[(1S)-2-{6-[4-(2-amino-2-methylpropyl)phenoxy]pyridin-3-yl}-1-(2H-tetrazol-5-yl)ethyl]-4-methylpentanoic acid] | 12.5 | 25 | >200 | 180 | 120 | 100 | – | – | – | – | – | –

Source: patent publication US9839642B2, “Beta-tetrazolyl-propionic acids as metallo-beta-lactamase inhibitors” (priority 2014, dated 2017)
